This is an account of results in publication PMC12596218 (Journal of Lipid Research, 2025).

Where “and” joins values, the source holds several entries; their conditions need not be identical. Identical values can stand only once. Like-named read-outs stand apart in the source and are kept apart here. Bounds are passed on as bounds.

Data set [1] has as its target T1, OATP1B3 (Homo sapiens, UniProt Q9NPD5).
T1 construct: stably transfected with the full open reading frames of human NTCP, ASBT, SOAT, OATP1B1, OATP1B3, OATP2B1, and murine Asbt (mAsbt); expressed in transfected cells; host or cells: HEK293, stably transfected (OATP1B3-HEK), tetracycline-induced
T1 sequence (Q9NPD5 1-702): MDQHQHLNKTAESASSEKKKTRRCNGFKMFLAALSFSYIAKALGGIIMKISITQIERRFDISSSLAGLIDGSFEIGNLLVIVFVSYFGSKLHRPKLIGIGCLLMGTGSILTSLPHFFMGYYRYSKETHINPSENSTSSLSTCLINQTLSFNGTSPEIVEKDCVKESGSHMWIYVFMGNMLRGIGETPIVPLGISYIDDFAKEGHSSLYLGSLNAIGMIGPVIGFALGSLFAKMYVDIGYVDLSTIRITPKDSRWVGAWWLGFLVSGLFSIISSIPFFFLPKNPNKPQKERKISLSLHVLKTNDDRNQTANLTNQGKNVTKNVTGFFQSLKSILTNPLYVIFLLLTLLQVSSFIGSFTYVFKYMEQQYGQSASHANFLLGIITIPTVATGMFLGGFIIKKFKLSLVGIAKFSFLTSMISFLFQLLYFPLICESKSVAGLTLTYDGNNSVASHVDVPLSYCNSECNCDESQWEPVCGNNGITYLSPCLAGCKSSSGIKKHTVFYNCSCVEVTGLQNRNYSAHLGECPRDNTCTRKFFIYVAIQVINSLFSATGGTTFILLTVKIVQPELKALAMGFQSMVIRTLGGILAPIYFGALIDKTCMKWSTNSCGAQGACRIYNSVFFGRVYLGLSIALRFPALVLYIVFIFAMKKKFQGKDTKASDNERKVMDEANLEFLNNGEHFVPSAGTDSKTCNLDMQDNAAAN
Put plainly: [3H]BSP transport inhibition assay in OATP1B3-HEK293 cells. It counts as cell-based. Particulars: 1 μM [3H]BSP, 10 min; two independent experiments. The source says:
(§1) Human embryonic kidney HEK293 cells, stably transfected with the full open reading frames of human NTCP, ASBT, SOAT, OATP1B1, OATP1B3, OATP2B1, and murine Asbt (mAsbt) were used as reported ([18], [20], [21], [22], [23]). The NTCP, ASBT, and mAsbt constructs were C-terminally tagged with the FLAG epitope, and the SOAT construct was C-terminally tagged with green fluorescent protein. Non-transfected Flp-In HEK293 cells (Thermo Fisher Scientific) served as the control. All cell lines were maintained at 37°C, 5% CO2 and 95% humidity in DMEM/F-12 medium (Thermo Fisher Scientific) supplemented with 10% fetal calf serum (Sigma-Aldrich), 4 mM L-glutamine (PAA) and penicillin/streptomycin (PAA). Expression of the respective carrier protein was induced by tetracycline treatment at 1 μg/ml (Carl Roth GmbH + Co. KG).
(§2) Cells were seeded onto poly-L-lysine-coated 96-well plates, induced with 1 μg/ml tetracycline, and grown to confluence over 72 h at 37°C. Then, cells were washed with tempered (37°C) phosphate-buffered saline (PBS, containing 137.0 mM NaCl, 2.7 mM KCl, 1.5 mM KH2PO4, and 7.3 mM Na2HPO4, at pH 7.4) and preincubated with 80 μl sodium transport buffer (STB, containing 142.9 mM NaCl, 4.7 mM KCl, 1.2 mM MgSO4, 1.2 mM KH2PO4, 1.8 mM CaCl2, and 20.0 mM HEPES, at pH 7.4) for 5 min at 37°C. For inhibition studies, the medium was replaced by 80 μl STB containing the respective inhibitor or solvent alone and cells were further incubated for 5 min at 37°C. Transport experiments were started by adding 20 μl of a 5-fold concentrated substrate solution (solved in STB). For transport experiments under sodium-free conditions the same buffer composition was used as for STB, but sodium chloride was substituted with equimolar concentrations of choline chloride as previously reported ([20], [24]). Transport experiments were stopped by washing twice with ice-cold PBS and the plates were kept cool on ice until adding the lysis buffer [1% sodium dodecyl sulfate (SDS) and 1 N NaOH]. Then, the cell-associated radioactivity of the respective tritium-labeled substrate or ligand was quantified by liquid scintillation counting using MicroScint-20 scintillation cocktail (Revvity) in a Packard Microplate Scintillation Counter TopCount NXT (Packard Instrument Company). For IC50 transport inhibition measurements, the mean uptake values measured in non-carrier-expressing HEK293 control cells were defined as 0% uptake control and were subtracted from all other values. Values from cells without inhibitor and solvent alone were set to 100%. Finally, all net transport data were expressed as uptake or binding as % of control. All transport or inhibition graphs were generated with GraphPad Prism 6 (GraphPad). Determination of half maximal inhibitory concentrations (IC50) was done by nonlinear regression analysis using the equation log (inhibitor) versus response—variable slope settings. All data points of the IC50 curves represent means ± SD of quadruplicate determinations. For Km measurements, BS uptake in the absence of sodium was regarded as carrier-independent unspecific uptake and was subtracted from the transport rates in the presence of sodium to obtain carrier-specific uptake rates (indicated as dashed lines). From the specific uptake rates, Michaelis Menten Km values were calculated by non-linear regression analysis.

The next data set concerns the target T2, NTCP (Homo sapiens, UniProt Q14973).
T2 construct: stably transfected with the full open reading frames of human NTCP, ASBT, SOAT, OATP1B1, OATP1B3, OATP2B1, and murine Asbt (mAsbt); expressed in transfected cells; host or cells: HEK293 (Flp-In), stably transfected, tetracycline-induced
T2 sequence (Q14973 1-349): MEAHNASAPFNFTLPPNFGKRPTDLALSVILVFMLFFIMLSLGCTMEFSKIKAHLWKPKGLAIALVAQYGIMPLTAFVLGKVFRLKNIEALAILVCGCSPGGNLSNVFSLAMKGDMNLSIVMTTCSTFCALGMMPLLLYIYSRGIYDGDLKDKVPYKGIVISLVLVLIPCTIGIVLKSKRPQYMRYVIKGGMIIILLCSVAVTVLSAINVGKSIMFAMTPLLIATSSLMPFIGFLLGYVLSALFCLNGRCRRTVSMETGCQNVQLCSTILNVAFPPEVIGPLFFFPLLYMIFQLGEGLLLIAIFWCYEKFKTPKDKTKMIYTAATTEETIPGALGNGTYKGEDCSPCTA
Put plainly: [3H]TC transport and inhibition assay in NTCP-HEK293 cells. It counts as cell-based. Particulars: 1 μM [3H]TC; for NTCP inhibition (in words): inhibitor up to 100 μM; for IC50: 10 min, NTCP-HEK293, two independent experiments.
Description: as §1, §2

Data set [2] has as its system OATP1B3. The note with it: cited from earlier work; for IC50: read-out: IC50 OATP1B3 inhibition.
For a further data set, the system named is OATP1B1. The note with it: cited from earlier work; for IC50: read-out: IC50 OATP1B1 inhibition.
Where [3] appears, read: in vitro studies, ref PMDA Goofice Report on the Deliberation Results.
Setting [4] is: ref 65 Zamek-Gliszczynski et al. (2021).
The mark [5] stands for this setting: in vitro, ref FDA NDA 214662 Livmarli.
Where [6] appears, read: in vitro studies, ref FDA NDA 215498 BYLVAY.
Where [7] appears, read: ref EMA EPAR Product Information Bylvay.

The IC50 is the concentration that gives 50% inhibition.

For the molecule `CCCCC1(CCCC)CS(=O)(=O)c2ccc(N(C)C)cc2[C@@H](c2ccc(OCCCC[N+]34CCN(CC3)CC4)cc2)[C@H]1O` [SC-435], the IC50 against OATP1B3 [1] is 2 to 8 µM and 7.8 µM and 5.1 µM. In addition, at NTCP, the “NTCP inhibition (in words)” value is “no significant NTCP inhibition”.

Regarding `CCCCC1(CCCC)CN(c2ccccc2)c2cc(SC)c(OCC(=O)N[C@@H](C(=O)NCC(=O)O)c3ccccc3)cc2S(=O)(=O)C1` [elobixibat], the IC50 was above 0.6 µM in the data set with OATP1B3 [2] (setting [3]); 4.8 µM and 4.2 µM against OATP1B3 [1]; 36.3 µM and 66.1 µM on NTCP; 0.258 µM in the data set with OATP1B1 (setting [3]).

Consider `CCCC[C@]1(CC)CS(=O)(=O)c2cc(CNC(CC(=O)O)CC(=O)O)c(OC)cc2[C@@H](c2ccccc2)N1` [linerixibat], for which, in the data set with OATP1B3 [2], the “Substrate of OATP1B3” value was “is a substrate”. Besides, the IC50 was 0.265 µM in the data set on OATP1B3 [2] (setting [4]); 2 to 8 µM and 3.6 µM and 2.2 µM against OATP1B3 [1]; 2.69 µM with OATP1B1 (setting [4]). In addition, on NTCP, the “NTCP inhibition (in words)” value is “no significant NTCP inhibition”. Besides, the “Substrate of OATP1B1” value in the data set on OATP1B1 is “is a substrate”.

As to `CCCCC1(CCCC)CS(=O)(=O)c2ccc(N(C)C)cc2[C@@H](c2ccc(OCc3ccc(C[N+]45CCN(CC4)CC5)cc3)cc2)[C@H]1O` [maralixibat], the “OATP1B3 inhibition (in words)” value in the data set with OATP1B3 [2] (setting [5]) was “In vitro, maralixibat did not inhibit the transporters OATP1B1 and OATP1B3”. Also, the IC50 against OATP1B3 [1] was 5.5 µM and 5.2 µM; on NTCP, 91.5 µM and 98.5 µM. Further, the “OATP1B1 inhibition (in words)” value in the data set on OATP1B1 (setting [5]) was “In vitro, maralixibat did not inhibit the transporters OATP1B1 and OATP1B3”.

Turning to `CCCCC1(CCCC)CN(c2ccccc2)c2cc(SC)c(OCC(=O)N[C@@H](C(=O)N[C@@H](CC)C(=O)O)c3ccc(O)cc3)cc2S(=O)(=O)N1` [odevixibat], the IC50 in the data set on OATP1B3 [2] (setting [6]) was 0.697 µM; on OATP1B3 [1], 5.1 µM and 4.3 µM; against NTCP, 9.9 µM and 17 µM; in the data set on OATP1B1 (setting [6]), 0.308 µM. Besides, the “OATP1B3 inhibition (in words)” value with OATP1B3 [2] (setting [7]) is “Odevixibat does not inhibit OATP1B1 and OATP1B3”. For the same molecule, the “OATP1B1 inhibition (in words)” value in the data set with OATP1B1 (setting [7]) is “Odevixibat does not inhibit OATP1B1 and OATP1B3”.
